Laboratory results from US7268231B2, “1,5-Naphthyridine azolinone” (Hoffmann-La Roche Inc., priority 2004, dated 2007).

Target: T1, recombinant human CDK1/Cyclin B complex (Homo sapiens, UniProt P06493)
T1 construct: made in house; host or cells: High Five insect cells (baculovirus) for CDK1/GST-cyclin B; M15 E. coli for the Rb substrate
Test: CDK1/Cyclin B kinase assay (FlashPlate or HTRF)
Type: biochemical
Settings: Rb protein substrate, Ki=IC50/(1+[S]/Km)
Protocol: To determine inhibition of CDK1 activity, either FlashPlate™ (NEN™-Life Science Products) assay or HTRF assay was performed. Both types of kinase assays were carried out using recombinant human CDK1/Cyclin B complex. GST-cyclinB (GST-cycB) and CDK1 cDNA clones in baculovirus vectors were provided by Dr. W. Harper at the Baylor College of Medicine, Houston, Tex. Proteins were co-expressed in High Five™ insect cells and the complex was purified on glutathione Sepharose resin (Pharmacia, Piscataway, N.J.) as previously described (Harper, J. W. et al. Cell 1993, 75, 805-816). A 6×-Histidine tagged truncated form of retinoblastoma (Rb) protein (amino acid 386-928) was used as the substrate for the CDK1/Cyclin B assay (the expression plasmid was provided by Dr. Veronica Sullivan, Department of Molecular Virology, Roche Research Centre, Welwyn Garden City, United Kingdom). The Rb protein is a natural substrate for phosphorylation by CDK1 (see Herwig and Strauss Eur. J. Biochem. Vol. 246 (1997) pp. 581-601 and the references cited therein). The expression of the 62Kd protein was under the control of an IPTG inducible promoter in an M15 E. coli strain. Cells were lysed by sonication and purification was carried out by binding lysates at pH 8.0 to a Ni-chelated agarose column pretreated with 1 mM imidazole. The resin was then washed several times with incrementally decreasing pH buffers to pH 6.0, and eluted with 500 mM imidazole. Eluted protein was dialysed against 20 mM HEPES pH 7.5, 30% glycerol, 200 mM NaCl, and 1 mM DTT. Purified Rb fusion protein stocks were quantitated for protein concentration, aliquoted, and stored at −70° C.
For the FlashPlate kinase assay, 96-well FlashPlates were coated with Rb protein at 10 μg/ml, using 100 μl per well. Plates were incubated at 4° C. overnight or at room temperature for 3 hours on a shaker. To control for nonspecific phosphorylation, one row of wells was coated with 100 μl/well coating buffer (20 mM HEPES, 0.2 M NaCl). Plates were then washed twice with wash buffer (0.01% Tween 20 in phosphate-buffered saline). Compounds to be tested (“test compounds”) were added to the wells at 5× final concentration. Reactions were initiated by immediate addition of 40 μl reaction mix (25 mM HEPES, 20 mM MgCl2, 0.002% Tween 20, 2 mM DTT, 1 μM ATP, 4 nM 33P-ATP) and a sufficient amount of enzyme to give counts that were at least 10-fold above background. Plates were incubated at room temperature on a shaker for 30 minutes. Plates were washed four times with the wash buffer, sealed, and counted on the TopCount scintillation counter (Packard Instrument Co., Downers Grove, Ill.]. The percent inhibition of Rb phosphorylation, which is a measure of the inhibition of CDK activity, was determined according to the following formula:
[formula] where “test compound” refers to the average counts per minute of the test duplicates, “nonspecific” refers to the average counts per minute when no CDK1/Cyclin B, etc., was added, and “total” refers to the average counts per minute when no compound was added. […] The value of the inhibitor constant Ki is calculated by the following: Ki=IC50/(1+[S]/Km), where [S] is the ATP concentration and Km is Michaelis constant.
The Homogeneous Time Resolved Fluorescence (HTRF) kinase assay was carried out in 96-well polypropylene plates (BD Biosciences, Bedford, Mass.). […]

T1 sequence (P06493 whole entry): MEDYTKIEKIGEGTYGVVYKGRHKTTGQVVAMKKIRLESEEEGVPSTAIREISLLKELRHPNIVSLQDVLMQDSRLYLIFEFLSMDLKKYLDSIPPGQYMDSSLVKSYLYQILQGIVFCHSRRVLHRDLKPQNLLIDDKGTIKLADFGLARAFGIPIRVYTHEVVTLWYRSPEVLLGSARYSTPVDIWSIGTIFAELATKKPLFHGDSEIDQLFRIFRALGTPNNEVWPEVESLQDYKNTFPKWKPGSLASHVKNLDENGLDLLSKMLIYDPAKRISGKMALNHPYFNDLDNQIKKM
T1 sequence (P14635 whole entry partner): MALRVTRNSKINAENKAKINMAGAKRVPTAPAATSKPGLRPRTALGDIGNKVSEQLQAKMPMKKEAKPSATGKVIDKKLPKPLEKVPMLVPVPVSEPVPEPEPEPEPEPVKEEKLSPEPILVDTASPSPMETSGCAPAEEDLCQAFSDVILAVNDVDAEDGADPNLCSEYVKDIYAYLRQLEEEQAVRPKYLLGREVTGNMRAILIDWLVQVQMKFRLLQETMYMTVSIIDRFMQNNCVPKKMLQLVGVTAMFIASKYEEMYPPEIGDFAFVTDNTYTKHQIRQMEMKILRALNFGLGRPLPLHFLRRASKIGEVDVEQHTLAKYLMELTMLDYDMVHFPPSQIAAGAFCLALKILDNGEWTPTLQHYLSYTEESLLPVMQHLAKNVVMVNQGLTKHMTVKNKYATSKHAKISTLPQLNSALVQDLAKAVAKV

| Ki [nM] | Structure (SMILES) |
| --- | --- |
| 1180 | CC(=O)NC1=NC(=O)/C(=C/c2ccc3ncccc3n2)N1 [Example 16, N-(5-[1,5]Naphthyridin-2-ylmethylene-4-oxo-4,5-dihydro-1H-imidazol-2-yl)-acetamide] |
| 735 | O=C1N=C(NCc2ccc(C(F)(F)F)cc2C(F)(F)F)N/C1=C\c1ccc2ncccc2n1 [Example 20, 2-(2,4-Bis-trifluoromethyl-benzylamino)-5-[1,5]naphthyridin-2-ylmethylene-1,5-dihydro-imidazol-4-one] |
| 4670 | NC1=NC(=O)/C(=C/c2ccc3ncccc3n2)S1 [Example 4, 2-Amino-5-[1,5]naphthyridin-2-ylmethylene-thiazol-4-one] |
| 31.7 | Cc1cccc(Cl)c1CNC1=NC(=O)/C(=C/c2ccc3ncccc3n2)S1 [Example 12, 2-(2-Chloro-6-methyl-benzylamino)-5-[1,5]naphthyridin-2-ylmethylene-thiazol-4-one] |
| 279 | O=C1N=C(NCc2ccc(F)c(Cl)c2)S/C1=C\c1ccc2ncccc2n1 [Example 8, 2-(3-Chloro-4-fluoro-benzylamino)-5-[1,5]naphthyridin-2-ylmethylene-thiazol-4-one] |
